According to patent US11214803B2, “Modulators of YAP1 expression” (Ionis Pharmaceuticals, Inc., priority 2019, dated 2022):
Strand notation (5' to 3'): a small letter for the sugar, then the base; units joined by * are phosphorothioate-linked, units joined directly phosphodiester-linked; [ ] holds rarer units or linkages, { } end groups; capitals alone tell only the bases. k = constrained ethyl (cEt); [5mC] = 5-methylcytosine; d = 2'-deoxy (DNA)

Tested on: Yap1 mRNA
Experiment: Dose-dependent inhibition of human Yap1 in A-431 cells (Example 7, 10,000 cells per well, RTS36584)
Format: cell-based
Details: free uptake
Experimental: Modified oligonucleotides described in the studies above were tested at various doses in A-431 cells. Cultured A-431 cells at a density of 10,000 cells per well were treated using free uptake with modified oligonucleotides diluted to concentrations described in the tables below. After approximately 48 hours, Yap1 mRNA levels were measured as previously described using the Human Yap1 primer-probe set RTS36584. Yap1 mRNA levels were normalized to total RNA content, as measured by RIBOGREEN®. Results are presented in the tables below as percent control of the amount of Yap1 mRNA relative to untreated control cells (% UTC). IC50s were calculated using a linear regression on a log/linear plot of the data in excel.

[1] = Table 58, 15.6 nM, A-431 cells 10,000 cells per well, 48 hours
[2] = Table 58, 62.5 nM, A-431 cells 10,000 cells per well, 48 hours
[3] = Table 58, 4000.00 nM, A-431 cells 10,000 cells per well, 48 hours
[4] = Table 58, A-431 cells 10,000 cells per well
[5] = Table 57, 15.6 nM, A-431 cells 10,000 cells per well, 48 hours
[6] = Table 57, 62.5 nM, A-431 cells 10,000 cells per well, 48 hours
[7] = Table 57, 4000.00 nM, A-431 cells 10,000 cells per well, 48 hours
[8] = Table 57, A-431 cells 10,000 cells per well
[9] = 15.6 nM, A-431 cells, 10,000 cells per well, approximately 48 hours
[10] = 62.5 nM, A-431 cells, 10,000 cells per well, approximately 48 hours
[11] = 4000.00 nM, A-431 cells, 10,000 cells per well, approximately 48 hours
[12] = A-431 cells, approximately 48 hours, linear regression on log/linear plot
[13] = Table 59, 15.6 nM, A-431 cells 10,000 cells per well, 48 hours
[14] = Table 59, 62.5 nM, A-431 cells 10,000 cells per well, 48 hours
[15] = Table 59, 4000.00 nM, A-431 cells 10,000 cells per well, 48 hours
[16] = Table 59, A-431 cells 10,000 cells per well

958532 (kG*kA*kA*dG*dT*dA*dG*dG*dA*dG*d[5mC]*dA*dA*kG*kT*k[5mC]; antisense) [compound 958532]
Yap1 mRNA, % UTC [1]: 88 % UTC | Yap1 mRNA, % UTC [2]: 44 % UTC | Yap1 mRNA, % UTC [3]: 7 % UTC | IC50 [4]: 100 nM

958526 (kA*kG*kT*dA*dA*dG*dA*dA*d[5mC]*dA*dA*dT*d[5mC]*kT*kT*kG; antisense) [compound 958526]
Yap1 mRNA, % UTC [5]: 118 % UTC | Yap1 mRNA, % UTC [6]: 83 % UTC | Yap1 mRNA, % UTC [7]: 17 % UTC | IC50 [8]: 200 nM

958616 (kG*kG*kT*dG*dG*dT*d[5mC]*dT*dT*dG*dT*dT*d[5mC]*kT*kT*kA; antisense) [compound 958616]
Yap1 mRNA, % UTC [5]: 78 % UTC | Yap1 mRNA, % UTC [6]: 49 % UTC | Yap1 mRNA, % UTC [7]: 17 % UTC | IC50 [8]: 100 nM

958477 (kA*kT*kT*dT*d[5mC]*d[5mC]*dG*dG*dT*dG*d[5mC]*dA*dT*kG*kT*kG; antisense) [compound 958477]
Yap1 mRNA, % UTC [1]: 83 % UTC | Yap1 mRNA, % UTC [2]: 37 % UTC | Yap1 mRNA, % UTC [3]: 6 % UTC | IC50 [4]: 100 nM

958544 (kG*k[5mC]*kT*dA*dA*dA*dT*dT*d[5mC]*dA*dA*d[5mC]*dT*kA*k[5mC]*k[5mC]; antisense) [compound 958544]
Yap1 mRNA, % UTC [9]: 65 % UTC | Yap1 mRNA, % UTC [10]: 77 % UTC | Yap1 mRNA, % UTC [11]: 17 % UTC | IC50 [12]: 100 nM

958597 (k[5mC]*k[5mC]*k[5mC]*dA*dA*dT*dA*d[5mC]*dA*dA*d[5mC]*d[5mC]*dA*kA*kG*kA; antisense) [compound 958597]
Yap1 mRNA, % UTC [13]: 104 % UTC | Yap1 mRNA, % UTC [14]: 46 % UTC | Yap1 mRNA, % UTC [15]: 20 % UTC | IC50 [16]: 200 nM

958735 (kA*kG*k[5mC]*dA*dA*dT*d[5mC]*dT*dT*dG*dT*dG*dG*kA*kT*k[5mC]; antisense) [compound 958735]
Yap1 mRNA, % UTC [9]: 116 % UTC | Yap1 mRNA, % UTC [10]: 69 % UTC | Yap1 mRNA, % UTC [11]: 23 % UTC | IC50 [12]: 200 nM

958550 (k[5mC]*k[5mC]*kT*dG*dT*dA*dG*dA*d[5mC]*dA*d[5mC]*dA*dT*kA*k[5mC]*kT; antisense) [compound 958550]
Yap1 mRNA, % UTC [9]: 91 % UTC | Yap1 mRNA, % UTC [10]: 60 % UTC | Yap1 mRNA, % UTC [11]: 10 % UTC | IC50 [12]: 100 nM

958500 (kT*k[5mC]*kT*dA*dT*dA*dT*dT*dA*dG*dA*dG*dT*kA*kT*kG) [compound 958500]
Yap1 mRNA, % UTC [9]: 91 % UTC | Yap1 mRNA, % UTC [10]: 63 % UTC | Yap1 mRNA, % UTC [11]: 16 % UTC | IC50 [12]: 100 nM

958786 (kT*kA*kT*dG*dT*d[5mC]*d[5mC]*dT*dA*d[5mC]*dT*dT*dT*k[5mC]*k[5mC]*k[5mC]; antisense) [compound 958786]
Yap1 mRNA, % UTC [5]: 106 % UTC | Yap1 mRNA, % UTC [6]: 84 % UTC | Yap1 mRNA, % UTC [7]: 25 % UTC | IC50 [8]: 300 nM

958605 (k[5mC]*kT*k[5mC]*dA*dG*dA*dT*dG*dT*dA*d[5mC]*d[5mC]*dA*kA*k[5mC]*kG; antisense) [compound 958605]
Yap1 mRNA, % UTC [9]: 76 % UTC | Yap1 mRNA, % UTC [10]: 63 % UTC | Yap1 mRNA, % UTC [11]: 9 % UTC | IC50 [12]: 100 nM

958753 (kT*kG*kT*dA*dT*dA*dT*dG*d[5mC]*d[5mC]*dG*dT*dT*k[5mC]*k[5mC]*k[5mC]; antisense) [compound 958753]
Yap1 mRNA, % UTC (Table 60, 15.6 nM, A-431 cells 10,000 cells per well, 48 hours): 72 % UTC | Yap1 mRNA, % UTC (Table 60, 62.5 nM, A-431 cells 10,000 cells per well, 48 hours): 48 % UTC | Yap1 mRNA, % UTC (Table 60, 4000.00 nM, A-431 cells 10,000 cells per well, 48 hours): 11 % UTC | IC50 (Table 60, A-431 cells 10,000 cells per well): 100 nM

958506 (kG*k[5mC]*kA*dG*dA*dT*dA*dA*dT*d[5mC]*dG*dA*dG*kA*kT*kT; antisense) [compound 958506]
Yap1 mRNA, % UTC [5]: 80 % UTC | Yap1 mRNA, % UTC [6]: 55 % UTC | Yap1 mRNA, % UTC [7]: 10 % UTC | IC50 [8]: 100 nM

958587 (kG*kG*kT*dG*dA*d[5mC]*dT*dG*dA*dA*dA*d[5mC]*dT*k[5mC]*kT*kA; antisense) [compound 958587]
Yap1 mRNA, % UTC [1]: 94 % UTC | Yap1 mRNA, % UTC [2]: 49 % UTC | Yap1 mRNA, % UTC [3]: 7 % UTC | IC50 [4]: 100 nM

958533 (kG*k[5mC]*kA*dT*dA*dG*dA*dA*dG*dT*dA*dG*dG*kA*kG*k[5mC]; antisense) [compound 958533]
Yap1 mRNA, % UTC [13]: 99 % UTC | Yap1 mRNA, % UTC [14]: 61 % UTC | Yap1 mRNA, % UTC [15]: 12 % UTC | IC50 [16]: 100 nM
